# Experimental data as given in patent publication US7169782B2, “Aryl substituted thiazolidinones and the use thereof” (Euro-Celtique S.A., priority 2001, dated 2007).
# Biological target: rBIIa/beta 1 sodium channels expressed in Xenopus oocytes (Rattus norvegicus, UniProt P04775)
# Experiment: Electrophysiological assay, two-electrode voltage clamp in oocytes, inactivated-state protocol
# Format: cell-based
# Details: not given
# Description: An electrophysiological assay was used to measure potencies of compounds of the present invention rBIIa/beta 1 sodium channels expressed in Xenopus oocytes.
# Preparation of cRNA encoding cloned rat brain type IIa (rBIIa) and beta 1 (β1): cDNA clones encoding the rat brain beta 1 subunit are cloned in house using standard methods, and mRNA are prepared by standard methods. mRNA encoding rBIIa is provided by Dr. A. Golden (UC Irvine). The mRNAs are diluted and stored at −80° C. in 1 μL aliquots until injection.
# Preparation of oocytes: Mature female Xenopus laevis are anaesthetized (20–40 min) using 0.15% 3-aminobenzoic acid ethyl ester (MS-222) following established procedures (Woodward, R. M., et al., Mol. Pharmacol. 41:89–103 (1992)).
# Two to six ovarian lobes are surgically removed. Oocytes at developmental stages V–VI are dissected from the ovary, wherein the oocytes are still surrounded by enveloping ovarian tissues. Oocytes are defolliculated on the day of surgery by treatment with collagenase (0.5 mg/mL Sigma Type I, or Boehringer Mannheim Type A, for 0.5–1 hr). Treated oocytes are vortexed to dislodge epithelia, washed repeatedly and stored in Barth's medium containing 88 mM NaCl, 1 mM KCl, 0.41 mM CaCl2, 0.33 mM Ca(NO3)2, 0.82 mM MgSO4, 2.4 mM NaHCO3, 5 mM HEPES, pH 7.4 adjusted with 0.1 mg/mL gentamycin sulphate.
# Micro-injection of oocytes: Defolliculated oocytes are micro-injected using a Nanoject injection system (Drummond Scientific Co., Broomall, Pa.). Injection pipettes are beveled to minimize clogging. Tip diameter of injection pipettes is 15–35 μm. Oocytes are microinjected with approximately 50 nL 1:10 ratio mixtures of cRNAs for rBIIa and beta 1 respectively.
# Electrophysiology: Membrane current responses are recorded in frog Ringer solution containing 115 mM NaCl, 2 mM KCl, 1.8 mM CaCl2, 5 mM HEPES, pH 7.4. Electrical recordings are made using a conventional two-electrode voltage clamp (Dagan TEV-200) over periods ranging between 1–7 days following injection. The recording chamber is a simple gravity fed flow-through chamber (volume […] depending on adjustment of aspirator). Oocytes are placed in the recording chamber, impaled with electrodes and continuously perfused (5–15 mL min^−1) with frog Ringer's solution. The tested compounds are applied by bath perfusion.
# Voltage protocols for evoking sodium channel currents: The standard holding potential for whole oocyte clamp is −120 mV. Standard current-voltage relationships are elicited by 40 ms depolarizing steps starting from −60 mV to +50 mV in 10 mV increments. Peak currents are measured as the maximum negative current after depolarizing voltage steps. The voltage from maximum current response is noted and used for the next voltage protocol.
# The purpose is to find compounds that are state dependent modifiers of neuronal sodium channels. Preferably, the compounds have a low affinity for the rested/closed state of the channel, but a high affinity for the inactivated state. The following voltage protocol is used to measure a compounds affinity for the inactivated state. Oocytes are held at a holding potential of −120 mV. At this membrane voltage, nearly all of the channels are in the closed state. Then a 4 second depolarization is made to the voltage where the maximum current is elicited. At the end of this depolarization, nearly all the channels are in the inactivated state. A 10 ms hyperpolarizing step is then made in order to remove some channels from the inactivated state. A final depolarizing test pulse is used to assay the sodium current after this prolonged depolarization (see analysis below). Sodium currents are measured at this test pulse before and after the application of the tested compound. Data is acquired using PCLAMP 8.0 software and analyzed with […] software (Axon instruments). […]
# Sequence of rBIIa/beta 1 sodium channels expressed in Xenopus oocytes (P04775 whole entry): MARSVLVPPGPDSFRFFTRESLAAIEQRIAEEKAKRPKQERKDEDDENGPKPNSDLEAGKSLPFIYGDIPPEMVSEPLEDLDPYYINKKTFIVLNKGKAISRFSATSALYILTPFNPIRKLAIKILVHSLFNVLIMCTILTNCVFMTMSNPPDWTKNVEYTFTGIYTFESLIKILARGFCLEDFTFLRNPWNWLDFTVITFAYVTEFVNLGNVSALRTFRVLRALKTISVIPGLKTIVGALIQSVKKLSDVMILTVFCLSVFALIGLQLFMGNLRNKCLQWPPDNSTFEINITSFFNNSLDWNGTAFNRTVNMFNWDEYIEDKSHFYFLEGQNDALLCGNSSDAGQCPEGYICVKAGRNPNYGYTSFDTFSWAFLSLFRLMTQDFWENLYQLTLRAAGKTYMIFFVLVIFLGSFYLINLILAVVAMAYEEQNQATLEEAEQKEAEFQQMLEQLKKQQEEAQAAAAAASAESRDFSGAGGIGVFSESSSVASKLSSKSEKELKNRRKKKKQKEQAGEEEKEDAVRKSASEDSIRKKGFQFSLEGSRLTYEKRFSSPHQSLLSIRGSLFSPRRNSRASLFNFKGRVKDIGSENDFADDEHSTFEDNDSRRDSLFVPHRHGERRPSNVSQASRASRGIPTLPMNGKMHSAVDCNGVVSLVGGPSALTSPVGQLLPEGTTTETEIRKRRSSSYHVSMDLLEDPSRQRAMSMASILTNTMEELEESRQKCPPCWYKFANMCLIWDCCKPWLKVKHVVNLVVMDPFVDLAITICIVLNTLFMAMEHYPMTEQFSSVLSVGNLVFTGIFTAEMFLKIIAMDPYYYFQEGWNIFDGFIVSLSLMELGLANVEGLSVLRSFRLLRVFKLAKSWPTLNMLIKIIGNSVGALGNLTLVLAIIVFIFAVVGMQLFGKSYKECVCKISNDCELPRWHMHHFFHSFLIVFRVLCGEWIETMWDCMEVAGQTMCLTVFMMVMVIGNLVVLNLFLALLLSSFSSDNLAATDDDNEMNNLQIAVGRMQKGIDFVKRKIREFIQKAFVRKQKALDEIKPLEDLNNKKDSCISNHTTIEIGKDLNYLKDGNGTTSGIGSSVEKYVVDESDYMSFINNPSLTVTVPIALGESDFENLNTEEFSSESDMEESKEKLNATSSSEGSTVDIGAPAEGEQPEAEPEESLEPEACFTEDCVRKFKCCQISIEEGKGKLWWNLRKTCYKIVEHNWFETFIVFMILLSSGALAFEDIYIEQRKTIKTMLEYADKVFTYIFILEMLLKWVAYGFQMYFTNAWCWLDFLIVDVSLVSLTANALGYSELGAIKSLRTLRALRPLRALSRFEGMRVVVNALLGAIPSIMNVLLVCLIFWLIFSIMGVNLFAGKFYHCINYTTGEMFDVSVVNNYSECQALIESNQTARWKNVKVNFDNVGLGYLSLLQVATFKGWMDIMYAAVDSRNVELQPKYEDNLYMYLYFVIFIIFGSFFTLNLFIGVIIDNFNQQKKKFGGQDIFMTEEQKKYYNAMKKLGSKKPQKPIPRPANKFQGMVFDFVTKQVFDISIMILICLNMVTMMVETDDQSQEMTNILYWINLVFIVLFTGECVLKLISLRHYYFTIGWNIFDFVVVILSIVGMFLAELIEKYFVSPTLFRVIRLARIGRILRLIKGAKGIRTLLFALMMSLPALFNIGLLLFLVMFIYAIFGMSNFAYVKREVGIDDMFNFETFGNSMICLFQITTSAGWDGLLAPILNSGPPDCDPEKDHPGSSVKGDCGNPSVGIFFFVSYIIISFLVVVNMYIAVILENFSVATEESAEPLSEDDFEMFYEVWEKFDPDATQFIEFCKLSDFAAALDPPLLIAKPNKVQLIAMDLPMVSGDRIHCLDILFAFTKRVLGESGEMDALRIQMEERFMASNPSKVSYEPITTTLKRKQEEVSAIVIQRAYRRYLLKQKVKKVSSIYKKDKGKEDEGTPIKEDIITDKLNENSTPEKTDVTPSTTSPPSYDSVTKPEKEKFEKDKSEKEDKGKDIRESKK
# Sequence of rBIIa/beta 1 sodium channels expressed in Xenopus oocytes (Q00954 19-218 partner): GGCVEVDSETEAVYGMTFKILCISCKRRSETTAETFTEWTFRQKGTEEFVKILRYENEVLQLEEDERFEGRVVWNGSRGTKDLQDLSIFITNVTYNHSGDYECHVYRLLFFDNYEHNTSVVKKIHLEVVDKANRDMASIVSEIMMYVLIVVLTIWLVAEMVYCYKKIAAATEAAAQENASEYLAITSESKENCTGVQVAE
row,Compound,Ki [nM]
1,O=C1CSC(C=Cc2ccccc2)N1CCN1CCCCC1 (centres unmarked),8790

# Same assay, conditions: apparent inhibition constant from single point inhibition data; rat brain type IIa/beta 1 Na+ channels in Xenopus oocytes; inactivated state; read-out: Ki (oocyte)
row,Compound,Ki [nM]
1,O=C1CSC(c2cccc(Oc3ccccc3)c2)N1CCN1CCCCC1 (centres unmarked),430
2,O=C1CSC(C=C(c2ccccc2)c2ccccc2)N1CCN1CCCCC1 (centres unmarked),290
3,CC(C)(C)c1ccc(Oc2cccc(C3SCC(=O)N3CCN3CCCCC3)c2)cc1 (centres unmarked),180
4,O=C1CSC(c2ccc(-c3ccc(Cl)cc3)o2)N1CCN1CCCCC1 (centres unmarked),600
5,O=C1CSC(c2cccc(Oc3ccc(Cl)c(Cl)c3)c2)N1CCN1CCCCC1 (centres unmarked),180
6,O=C1CSC(c2cccc(OCc3ccccc3)c2)N1CCN1CCCCC1 (centres unmarked),390
7,O=C1CSC(c2cccc(Oc3ccc(Cl)cc3)c2)N1CCN1CCCCC1 (centres unmarked),390
8,O=C1CSC(c2ccc(Oc3ccc(F)cc3)cc2)N1CCN1CCCCC1 (centres unmarked),500
9,COc1ccc(Oc2cccc(C3SCC(=O)N3CCN3CCCCC3)c2)cc1 (centres unmarked),800
10,O=C1CSC(C#Cc2ccccc2)N1CCN1CCCCC1 (centres unmarked),5350
11,O=C1CSC(c2cccc3ccccc23)N1CCN1CCCCC1 (centres unmarked),2830
12,CC1SCC(=O)N1CCN1CCCCC1 (centres unmarked),70700
13,O=C1CSC(C=C(c2ccccc2)c2ccccc2)N1CCN1CCCC1 (centres unmarked),3480
14,CN(C)CCN1C(=O)CSC1C=C(c1ccccc1)c1ccccc1 (centres unmarked),2600
15,CN(C)CCN1C(=O)CSC1c1cccc(Oc2ccc(C(C)(C)C)cc2)c1 (centres unmarked),840
16,O=C1CSC(c2cccc(Oc3ccccc3)c2)N1C1CCN(Cc2ccccc2)CC1 (centres unmarked),250
17,O=C1CSC(c2cccc(OCc3ccccc3)c2)N1CCCn1ccnc1 (centres unmarked),6550

row,Compound,Ki [nM]
1,O=C1CSC(c2cccc(Oc3cccc(C(F)(F)F)c3)c2)N1Cc1ccccn1 (centres unmarked),3400
2,CN(C)CCN1C(=O)CSC1c1cccc(Oc2cc(Cl)cc(Cl)c2)c1 (centres unmarked),840
3,CN(C)CCCN1C(=O)CSC1c1cccc(Oc2cc(Cl)cc(Cl)c2)c1 (centres unmarked),1880
4,O=C1CSC(c2ccc(Oc3ccc(F)cc3)cc2)N1C1CCN(Cc2ccccc2)CC1 (centres unmarked),280
5,O=C1CSC(c2cccc(Oc3cccc(C(F)(F)F)c3)c2)N1CCN1CCCC1 (centres unmarked),420
6,CCn1c2ccccc2c2cc(C3SCC(=O)N3CCN3CCCC3)ccc21 (centres unmarked),7400
7,O=C1CSC(c2cccc(OCc3ccccc3)c2)N1CCN1CCCC1 (centres unmarked),3430
8,O=C1CSC(c2cccc(Oc3ccc(Cl)c(Cl)c3)c2)N1CCN1CCOCC1 (centres unmarked),810
9,O=C1CSC(c2cccc(Oc3ccc(Cl)c(Cl)c3)c2)N1CCN1CCCC1 (centres unmarked),720
10,O=C1CSC(c2cccc(Oc3cccc(C(F)(F)F)c3)c2)N1CCCn1ccnc1 (centres unmarked),1150
11,CN(C)CCCN1C(=O)CSC1c1cccc(Oc2cccc(C(F)(F)F)c2)c1 (centres unmarked),2750
12,O=C1CSC(c2cccc(Oc3cccc(C(F)(F)F)c3)c2)N1CCNCc1ccccc1 (centres unmarked),50
13,CC(C)N(CCN1C(=O)CSC1c1cccc(Oc2cccc(C(F)(F)F)c2)c1)C(C)C (centres unmarked),30
14,CN(C)CC(C)(C)CN1C(=O)CSC1c1cccc(Oc2ccc(Cl)c(Cl)c2)c1 (centres unmarked),390
15,CC1CCCCN1CCCN1C(=O)CSC1c1cccc(Oc2ccc(Cl)c(Cl)c2)c1 (centres unmarked),880
16,CN(C)CC(C)(C)CN1C(=O)CSC1c1cccc(Oc2cccc(C(F)(F)F)c2)c1 (centres unmarked),230
17,CC1CCCCN1CCCN1C(=O)CSC1c1cccc(Oc2cccc(C(F)(F)F)c2)c1 (centres unmarked),1320
